From US10774084B2, “Adenine derivatives and their use as UV-photoprotective agents” (UNIVERZITA PALACKEHO V OLOMOUCI, priority 2015, dated 2020)

Legend:
[1] = test system: Normal human dermal fibroblasts (NHDF); assay: In vitro UVA/UVB photoprotection test on NHDF (Example 9); format: cell-based
Text: Normal human dermal fibroblasts (NHDF) were used as an in vitro model. Cells were isolated from tissue specimens obtained from healthy patients undergoing plastic surgery at the Department of Plastic and Aesthetic Surgery (University Hospital Olomouc). The use of skin tissue was in accordance with the Ethics Committee of the University Hospital and Faculty of Medicine and Dentistry, Palacky University, Olomouc and all patients signed written informed consent. Fibroblasts were used between the 2nd and 4th passage. For all experiments the fibroblasts were seeded onto 96-well plates at a density of 0.8×10^5 cells/ml (0.2 ml per well) of cultivation medium (DMEM supplemented with fetal calf serum (10%, v/v), penicillin ([…]) and streptomycin (100 U/ml)). Test substances included compounds number 1, 3, 9, 15 and 20. Compounds were dissolved in DMSO and then diluted in serum free medium (DMEM supplemented with penicillin ([…]) and streptomycin (100 U/ml)). After 24 h incubation was cultivation medium changed to serum free medium containing test compound or DMSO (negative control). The final applied concentrations range was 3.9-31.3 μmol/ll. As a control serum free medium supplemented with appropriate concentration of DMSO (0.5%, v/v) was used. Rosmarinic acid was used as positive control. Each test compound was in parallel applied on two 96-well plates with NHDF. After 60 minutes incubation medium with test compound was discarded, cells were washed two-times with PBS and PBS supplemented with glucose (1 mg/ml) was applied. To study UVA photoprotection, a plate was exposed to a cytotoxic dose of UVA radiation (7.5 J/cm^2) using a solar simulator SOL 500 (Dr. Hoenle Technology, Germany) equipped with a H1 filter transmitting wavelengths of 320-400 nm. To study UVB photoprotection, a plate was exposed to a cytotoxic dose of UVB radiation (150 mJ/cm^2) using the solar simulator equipped with a H2 filter transmitting wavelengths of 295-320 nm. Intensity of UVA or UVB radiation was evaluated before each irradiation by UVA- or UVB-meter. Control (non-irradiated) plates were for the period of irradiation incubated in dark. After UVA or UVB exposure PBS with glucose was discarded and serum free medium was applied. After 24 hours (37° C., 5% CO2) cell damage was evaluated by neutral red (NR) incorporation into viable cells. Medium was discarded and NR solution (0.03% w/v, PBS) was applied. After 60 minutes NR solution was discarded, cells were fixed with a mixture of formaldehyde (0.5%, v/v) and CaCl2 (1%, m/v) in ratio 1:1 and then NR was dissolved in methanol (50%, v/v) with acetic acid (1%, v/v). After 5 minutes of intensive shaking absorbance was measured at 540 nm. Experiments were performed in four independent repetitions with use of cells from four donors to minimize individual sensitivity of donor cells. Photoprotective effect was evaluated by comparison of experimental data (absorbance) of test compounds with a positive control and a negative control (according to the following equation:
[formula] • As . . . absorbance of sample (cells pre-incubated with test compounds in serum free medium and irradiated) • Anc . . . absorbance of negative control (cells pre-incubated with s DMSO in serum free medium and non-irradiated=incubated in dark) • Apc . . . absorbance of positive control (cells pre-incubated with s DMSO in serum free medium and irradiated)

HaCaT = assay: In vitro phototoxicity test (neutral red) on HaCaT; format: cell-based, human
Procedure: Spontaneously Immortalized Aneuploid Human Keratinocyte Cell Line (HaCaT) was bought from CLS (Eppeheim, Germany) and used as an in vitro model. For all experiments the keratinocytes were seeded onto 96-well plates at a density of 1.6×10^5 cells/ml (0.2 ml per well) of growth medium (DMEM supplemented with fetal bovine serum (10%), penicillin ([…]) and streptomycin (100 U/ml)).
Test substances included compounds number 3, 9, 15 and 20. Compounds were dissolved in DMSO and then diluted in serum free medium (DMEM supplemented penicillin (100 mg/ml) and streptomycin (100 U/ml)). After 24 h incubation was growth medium changed to serum free medium containing test compound or DMSO (negative control). The final applied concentrations range was 3.9-125 μmol/l. As a control, serum free medium supplemented with appropriate concentration of DMSO (0.5%, v/v) was used. In parallel with test compound, chlorpromazine (CPZ; 0.8-50 μmol/l) was used as a known phototoxic compound. The test compound was in parallel applied on two 96-well plates with HaCaT. After 60 minutes incubation with test compound medium was discarded, cells were washed two-times with PBS and PBS supplemented with glucose (1 mg/ml) was applied. A plate was then exposed to a non-cytotoxic dose of UVA radiation (5.0 J/cm2) using a solar simulator SOL 500 (Dr. Hoenle Technology, Germany) equipped with a H1 filter transmitting wavelengths of 320-400 nm. Intensity of UVA radiation was evaluated before each irradiation by UVA-meter. A control (non-irradiated) plate was for the period of irradiation incubated in dark. After UVA exposure PBS with glucose was discarded and serum free medium was applied. After 24 hours (37° C., 5% CO2) cell damage was evaluated by neutral red (NR) incorporation into viable cells. Medium was discarded and NR solution (0.03% w/v, PBS) was applied. After 60 minutes NR solution was discarded, cells were fixed with a mixture of formaldehyde (0.5%, v/v) and CaCl2 (1%, m/v) in ratio 1:1 and then NR was dissolved in methanol (50%, v/v) with acetic acid (1%, v/v). After 5 minutes of intensive shaking absorbance was measured at 540 nm. Experiments were performed in four independent repetition with use of cells from four donors to minimize individual sensitivity of donor cells. Phototoxic effect was evaluated as % of viability of control cells that was calculated from experimental data (absorbance) according to the following equation: […]
AS . . . absorbance of sample (cells pre-incubated with test compound in serum free medium and irradiated)
AC . . . absorbance of control (cells pre-incubated with DMSO in serum free medium and irradiated)
AB . . . absorbance of background (extraction solution)

SMILES | Protection (%) ([1]; UVA 7.5 J/cm^2, 3.9 μmol/l) | Protection (%) ([1]; UVA 7.5 J/cm^2, 7.8 μmol/l) | Protection (%) ([1]; UVA 7.5 J/cm^2, 15.6 μmol/l) | Protection (%) ([1]; UVA 7.5 J/cm^2, 31.3 μmol/l) | Protection (%) ([1]; UVB 150 mJ/cm^2, 3.9 μmol/l) | Protection (%) ([1]; UVB 150 mJ/cm^2, 7.8 μmol/l) | Protection (%) ([1]; UVB 150 mJ/cm^2, 15.6 μmol/l) | Protection (%) ([1]; UVB 150 mJ/cm^2, 31.3 μmol/l) | HaCaT viability (HaCaT; +UVA 5.0 J/cm2, 3.9 μmol/l) [% control] | HaCaT viability (HaCaT; +UVA 5.0 J/cm2, 7.8 μmol/l) [% control] | HaCaT viability (HaCaT; +UVA 5.0 J/cm2, 15.6 μmol/l) [% control] | HaCaT viability (HaCaT; +UVA 5.0 J/cm2, 31.3 μmol/l) [% control] | HaCaT viability (HaCaT; +UVA 5.0 J/cm2, 62.5 μmol/l) [% control] | HaCaT viability (HaCaT; +UVA 5.0 J/cm2, 125 μmol/l) [% control] | HaCaT viability (HaCaT; −UVA, 3.9 μmol/l) [% control] | HaCaT viability (HaCaT; −UVA, 7.8 μmol/l) [% control] | HaCaT viability (HaCaT; −UVA, 15.6 μmol/l) [% control] | HaCaT viability (HaCaT; −UVA, 31.3 μmol/l) [% control] | HaCaT viability (HaCaT; −UVA, 62.5 μmol/l) [% control] | HaCaT viability (HaCaT; −UVA, 125 μmol/l) [% control] | further results
OCc1ccc(CNc2ncnc3c2ncn3C2CCCO2)o1 (stereo not shown) [Compound 3, 6-(5-hydroxymethylfuran-2-ylmethylamino)-9-(tetrahydrofuran-2-yl)purine] | 14.7 | 16.3 | 24.6 | 25.8 | 43.6 | 53.1 | 47.4 | 48.4 | 103.88 | 111.08 | 107.93 | 118.43 | 120.78 | 124.66 | 100.1 | 100.4 | 102.1 | 107.8 | 106.4 | 109.5 | 
c1csc(CNc2ncnc3c2ncn3C2CCCO2)c1 (stereo not shown) [Compound 9, 6-(thiophen-2-ylmethylamino)-9-(tetrahydrofuran-2-yl)purine] | 41.3 | 44.4 | 45.7 | 52.0 | 34.9 | 62.6 | 64.4 | 68.7 | 122.7 | 124.2 | 120.5 | 128.1 | 129.9 | 126.6 | 101 | 101.1 | 100.4 | 101.8 | 103.9 | 103.4 | 
Clc1nc(NCc2ccco2)c2ncn(C3CCCO3)c2n1 (stereo not shown) [Compound 15, 2-chloro-6-furfurylamino-9-(tetrahydrofuran-2-yl)purine] | 24.5 | 29.9 | 33.0 | 35.3 | 39.9 | 55.2 | 53 | 60.2 | 116.4 | 119.9 | 119.9 | 118.8 | 115.7 | 104 | 106.5 | 107.4 | 108.6 | 108.6 | 109.2 | 105 | 
Clc1nc(NCC2CCCO2)c2ncn(C3CCCO3)c2n1 (stereo not shown) [Compound 20, 2-chloro-6-(tetrahydrofuran-2-ylmethylamino)-9-(tetrahydrofuran-2-yl)purine] | 5.9 | 10.7 | 11.5 | 16.2 | 39.8 | 58.3 | 58.2 | 60 | 104.6 | 112.1 | 110.1 | 121.4 | 125.8 | 125.9 | 103.5 | 102.9 | 104.1 | 108.6 | 110.7 | 110.5 | 
CN(C)CCCN1c2ccccc2Sc2ccc(Cl)cc21 [chlorpromazine, reference compound] |  |  |  |  |  |  |  |  |  |  |  |  |  |  |  |  |  |  |  |  | viability of HaCaT cells (HaCaT; UVA+, 3.1 μmol/l): below 80 % of control; viability of HaCaT cells (HaCaT; UVA−, 25 μmol/l): below 70%
